For data set [1], the system named is patient with idiopathic pulmonary arterial hypertension. The experiment in a line: Human case (Example 1): oral once daily cicletanine in a patient with idiopathic pulmonary arterial hypertension (Class I). The data set is classed as in vivo. The note with it: for 6-minute walking distance: less than 30 meters immediately prior to initiation; for levels of N-terminal pro-B-type natriuretic peptide: 4409 immediately prior to therapy. Here is the method: A successful clinical trial of one of the embodiments comprised use of racemic cicletanine with the dosage initiated at 50 mg daily and titrated as tolerated to 150 mg daily in a patient with Class I Pulmonary Hypertension.
A patient with idiopathic pulmonary arterial hypertension, despite having been for some time on high doses of all three classes of approved pulmonary hypertension drugs (endothelin receptor antagonist, prostacyclin, and PDE5 inhibitor), was in heart failure and deteriorating rapidly. The patient had finally been stabilized in the intensive care unit with continuously inhaled nitric oxide. Cicletanine therapy was inititiated—oral once daily, titrating from 50 mg to 150 mg/day over three days—day 1 at 50 mg, day 2 at 100 mg, day 3 and thereafter at 150 mg. Within three days from initiation of cicletanine therapy, the patient was weaned off nitric oxide and released from the intensive care unit; they were home within 5 days of initiation of cicletanine treatment. The patient has been on the cicletanine therapy for four and a half months.
The patient has manifested a significant improvement in 6-minute walking distance, which was less than 30 meters immediately prior to cicletanine initiation, and was over 200 meters after one month of cicletanine therapy and was over 400 meters from the second month of cicletanine therapy onward.
Immediately prior to cicletanine therapy the marker was at 4409; within a few days of cicletanine therapy biomarker levels had fallen to less than 2000, and have stayed near 2000 for approximately four months.
The patient, formerly bedridden, is now able to perform housework and take regular exercise.

In data set [2] the test system is WHO class II pulmonary hypertension patients. Nature of the data set: Oral cicletanine 50 mg daily in WHO class II pulmonary hypertension patients. The data set is classed as in vivo, human. The procedure:
When dosed orally once daily at 50 mg daily, improvements in functional status as measured by improved 12 minute walking distance were observed.
Another embodiment comprises the use of 50 mg oral daily doses of racemic cicletanine for treatment of Class II Pulmonary Hypertension, resulting in improved walking distance values.

Data set [3] deals with Class III Pulmonary Hypertension. Nature of the data set: Oral cicletanine 50 mg daily in Class III pulmonary hypertension (associated with left-sided heart failure). The data set is classed as in vivo, human. The procedure: Yet another embodiment comprises the use of 50 mg oral daily doses of racemic cicletanine for treatment of Class III Pulmonary Hypertension, resulting in improved NYHA functional status.

The test system of data set [4] is human subject with heart failure. The experiment in a line: Oral cicletanine 150 mg daily in a human subject with heart failure. The data set is classed as in vivo. The note with it: oral 150 mg daily. The procedure: Natriuretic peptide level, a marker of heart failure is improved by oral administration of 150 mg of Cicletanine daily to a human subject with heart failure.

Data set [5] can be described thus: Tolerance and systemic blood pressure effects of cicletanine in patients. The data set is classed as in vivo, human. Here is the method:
We have unexpectedly found good tolerance of Cicletanine in some patient populations at doses up to 400 mg. […] This is particularly effective by use of means to reduce or modulate the magnitude of the kaliuretic, natriuretic and diuretic effects of Cicletanine. As part of aspects of the present invention, and as described below, we have also invented several means of accomplishing this objective.
In accordance of the other embodiments of the present invention, an oral therapeutic formulation is disclosed wherein sufficient cicletanine is contained to improve pulmonary hemodynamics without excessive lowering of systemic blood pressure. Excessive reduction of systemic blood pressure has been a limiting side effect in many agents potentially useful for treatment of pulmonary hypertension. […] Use of appropriate delivery or other mechanisms to optimize blood levels of individual isomers will allow even higher dosing without adverse impacts on systemic blood pressures.
In accordance with some embodiments of the present invention, an oral formulation is disclosed, comprising a therapeutically effective amount of cicletanine alone or in combination with a second agent such that the overall formulation improves pulmonary hemodynamics without inappropriately lowering systemic blood pressure. […]

The subject of data set [6] is nitric oxide in vascular tissue. The experiment in a line: Nitric oxide levels in vascular tissue.
[7] abbreviates: 50 mg daily titrated to 150 mg daily, patient with Class I Pulmonary Hypertension.

A value given as a limit tells only on which side of the number the result lay.

As to `Cc1ncc2c(c1O)COC2c1ccc(Cl)cc1` (racemic) [cicletanine], the values for the 6-minute walking distance entry in data set [1] (after one month of cicletanine therapy (150 mg/day oral)) and in data set [1] (from the second month of cicletanine therapy onward) were “over 200 meters” and “over 400 meters”, respectively. The results for the “levels of N-terminal pro-B-type natriuretic peptide” value in data set [1] (for approximately four months of therapy) and in data set [1] (within a few days of cicletanine therapy) were approximately 2000 and “less than 2000”, respectively. In data set [1] (formerly bedridden, now able to perform housework and take regular exercise), the quality of life entry was “improved significantly”. The “time from initiation of treatment until home” value in data set [1] (titrating from 50 mg to 150 mg/day) is listed as not above 5 days. The “time from initiation of therapy until weaned off nitric oxide and released from the intensive care unit” value in data set [1] (titrating from 50 mg to 150 mg/day over three days) is “three”. Further, the “12 minute walking distance (functional status)” value in data set [2] (oral once daily 50 mg, WHO class II patients) is on record as “improved”. Moreover, the “hemodynamic and clinical change from baseline” value in data set [3] (pulmonary hypertension associated with left-sided heart failure) is “favorable, long-term hemodynamic and clinical improvements”. The “Natriuretic peptide level (marker of heart failure)” value in data set [4] is recorded as “improved”. In addition, the systemic blood pressure result in data set [5] (human, in vivo) is recorded as “tends not to lower”. Besides, the “doses with good tolerance” value in data set [5] (some patient populations) is “up to 400 mg”. Also, in data set [6], the “tachyphylaxis to its own nitric oxide effects” value is listed as “avoids tachyphylaxis”. Further, in data set [6] (persistent across concentrations corresponding to human doses from 1 mg daily to several thousand milligrams daily), the “levels of nitric oxide in vascular tissue” value is “increased levels”.
With `Cc1ncc2c(c1O)COC2c1ccc(Cl)cc1` (racemic) [racemic cicletanine], in data set [1] (setting [7]), the “increase in walking distance” value is listed as “more than 12 fold” and the “natriuretic peptide serum levels” value was “substantial reductions”. The walking distance values result in data set [2] (50 mg oral daily doses, Class II Pulmonary Hypertension) is listed as “improved”. The NYHA functional status entry in data set [3] (50 mg oral daily doses, Class III Pulmonary Hypertension) is recorded as “improved”.
In the case of `Cc1ncc2c(c1O)COC2c1ccc(Cl)cc1` (single isomer, unassigned; (-)) [(−) cicletanine], the “nitric oxide enhancing effect, (−) versus (+) cicletanine” value in data set [6] (compared with (+) cicletanine) is given as “more prominent”.

The values are drawn from patent US20080312241A1, “Cicletanine and PKC inhibitors in the treatment of pulmonary and cardiac disorders” (Gilead Sciences, Inc., priority 2007, published 2008).
